{
  "source": "patent US11524955B2",
  "about": "“2,4-diamino-pyrimidine compounds and method for making and using the compounds” (Rigel Pharmaceuticals, Inc., priority 2016, dated 2022)",
  "key": {"IL-23, dendritic cells": {"test_system": "IL-23, dendritic cells", "experiment": "IL-23 assay, human primary monocyte-derived dendritic cells, LPS stimulated, ELISA", "format": "cell-based", "conditions": "Dendritic cell, LPS stimulated, 10 pt, read-out: IL23-P19, ELISA, Dendritic, LPS, 10 pt", "protocol": "(§1) IL-23 assays: THP1 cells or human primary monocyte-derived dendritic cells (DC) were primed overnight with IFNg. Following one hour preincubation with compound, cells were stimulated overnight with LPS. IL-23 released into the media was quantitated by ELISA."}, "IL-23, THP1 cells": {"test_system": "IL-23, THP1 cells", "experiment": "IL-23 assay, THP1 cells primed with IFNg, LPS stimulated, ELISA", "format": "cell-based", "conditions": "Homo sapiens, THP-1", "protocol": "as §1"}, "TAK1": {"target": "T1, TAK1 (Homo sapiens, UniProt O43318)", "T1 sequence (O43318 1-303 limits assumed)": "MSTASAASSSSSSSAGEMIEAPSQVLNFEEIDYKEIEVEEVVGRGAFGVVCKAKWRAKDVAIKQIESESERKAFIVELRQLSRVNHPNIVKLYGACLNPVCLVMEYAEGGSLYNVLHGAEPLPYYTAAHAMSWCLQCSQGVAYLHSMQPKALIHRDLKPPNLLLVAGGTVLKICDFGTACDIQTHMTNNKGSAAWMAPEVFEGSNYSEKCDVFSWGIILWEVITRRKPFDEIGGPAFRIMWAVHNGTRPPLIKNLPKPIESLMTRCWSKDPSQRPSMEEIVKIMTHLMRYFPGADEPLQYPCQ", "experiment": "TAK1 biochemical assay, ADP-Glo kinase assay", "protocol": "(§2) IRAK4 and TAK1 biochemical assays: kinase activity was measured by ADP-Glo kinase assay (Promega)."}, "IRAK4": {"target": "T2, IRAK4 (Homo sapiens, UniProt Q9NWZ3)", "T2 sequence (Q9NWZ3 1-460)": "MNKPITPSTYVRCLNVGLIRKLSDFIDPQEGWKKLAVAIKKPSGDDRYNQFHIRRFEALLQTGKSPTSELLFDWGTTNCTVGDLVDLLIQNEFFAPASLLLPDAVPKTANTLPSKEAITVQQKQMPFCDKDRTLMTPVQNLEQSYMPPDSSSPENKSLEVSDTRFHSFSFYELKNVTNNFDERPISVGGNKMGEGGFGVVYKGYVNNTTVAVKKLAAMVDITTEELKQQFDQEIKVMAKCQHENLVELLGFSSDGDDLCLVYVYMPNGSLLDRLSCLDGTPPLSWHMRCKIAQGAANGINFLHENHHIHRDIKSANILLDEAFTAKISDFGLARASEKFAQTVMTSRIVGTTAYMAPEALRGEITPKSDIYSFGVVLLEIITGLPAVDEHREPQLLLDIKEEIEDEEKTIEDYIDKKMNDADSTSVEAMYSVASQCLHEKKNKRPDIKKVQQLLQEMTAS", "experiment": "IRAK4 biochemical assay, ADP-Glo kinase assay", "conditions": "for Selectivity (TAK1/IRAK4): ratio of TAK1 and IRAK4 IC50", "protocol": "as §2"}, "[1]": {"conditions": "THP1 cells, IFNy primed, LPS stimulated, 10 pt, read-out: IL23-p19 ELISA, THP1-IFNy, LPS, 10 pt"}, "[2]": {"conditions": "read-out: IL23 (LPS induced) IC50"}},
  "note": "Where two headings read alike, the source gives them in different places.",
  "data": [
    {"smiles": "Cc1cc(Nc2ncc(-c3cccnc3)c(NC3C4C=CC(C4)C3C(N)=O)n2)ccc1OCCN1CCCC1", "note": "(stereo not drawn) [Compound 1, 3-((2-((3-methyl-4-(2-(pyrrolidin-1-yl)ethoxy)phenyl)amino)-5-(pyridin-3-yl)pyrimidin-4-yl)amino)bicyclo[2.2.1] hept-5-ene-2-carboxamide]", "values": [
      {"measurement": "IC50", "setting": "IL-23, dendritic cells", "result": "< 250", "unit": "nM"},
      {"measurement": "IC50", "setting": "IL-23, THP1 cells; [1]", "result": "< 100", "unit": "nM"}
    ]},
    {"smiles": "NC(=O)[C@@H]1[C@H](Nc2nc(Nc3ccc(OCCN4CCCC4)cc3)ncc2-c2cccnc2)[C@H]2C=C[C@@H]1C2", "note": "[Compound 2]", "values": [
      {"measurement": "IC50", "setting": "IL-23, THP1 cells; [1]", "result": "< 1000", "unit": "nM"}
    ]},
    {"smiles": "CS(=O)(=O)N1CCN(c2ccc(Nc3ncc(-c4cccnc4)c(N[C@@H]4C5C=CC(C5)[C@@H]4C(N)=O)n3)cc2F)CC1", "note": "(stereo partly drawn) [Compound 3, (2S,3R)-3-((2-((3-fluoro-4-(4-(methylsulfonyl)piperazin-1-yl)phenyl)amino)-5-(pyridin-3-yl)pyrimidin-4-yl)amino)bicyclo[2.2.1] hept-5-ene-2-carboxamide]", "values": [
      {"measurement": "IC50", "setting": "IL-23, THP1 cells; [1]", "result": "< 1000", "unit": "nM"}
    ]},
    {"smiles": "NC(=O)[C@@H]1[C@H](Nc2nc(Nc3cccc(C(=O)N4CCCC4)c3)ncc2-c2cccnc2)[C@H]2C=C[C@@H]1C2", "note": "[Compound 4, (1S,2S,3R,4R)-3-((5-(pyridin-3-yl)-2-((3-(pyrrolidine-1-carbonyl)phenyl)amino)pyrimidin-4-yl)amino)bicyclo[2.2.1] hept-5-ene-2-carboxamide]", "values": [
      {"measurement": "IC50", "setting": "TAK1", "result": 229, "unit": "nM"},
      {"measurement": "IC50", "setting": "IRAK4", "result": 10, "unit": "nM"},
      {"measurement": "IC50", "setting": "IL-23, THP1 cells; [1]", "result": "< 1000", "unit": "nM"},
      {"measurement": "IC50", "setting": "IL-23, THP1 cells; [2]", "result": 320, "unit": "nM"}
    ]},
    {"smiles": "Cc1cnc(Nc2cccc(C(=O)N3CCCC3)c2)nc1N[C@H]1[C@@H](C(N)=O)[C@@H]2C=C[C@H]1C2", "note": "[Compound 5, (1S,2S,3R,4R)-3-((5-methyl-2-((3-(pyrrolidine-1-carbonyl)phenyl)amino)pyrimidin-4-yl)amino)bicyclo[2.2.1] hept-5-ene-2-carboxamide]", "values": [
      {"measurement": "IC50", "setting": "TAK1", "result": 8, "unit": "nM"},
      {"measurement": "IC50", "setting": "IRAK4", "result": 3, "unit": "nM"},
      {"measurement": "IC50", "setting": "IL-23, THP1 cells; [1]", "result": "< 100", "unit": "nM"},
      {"measurement": "IC50", "setting": "IL-23, THP1 cells; [2]", "result": 100, "unit": "nM"}
    ]},
    {"smiles": "NC(=O)[C@@H]1[C@H](Nc2nc(Nc3cccc(C(=O)N4CCCC4)c3)ncc2C2CC2)[C@H]2C=C[C@@H]1C2", "note": "[Compound 6, (1S,2S,3R,4R)-3-((5-cyclopropyl-2-((3-(pyrrolidine-1-carbonyl)phenyl)amino)pyrimidin-4-yl)amino)bicyclo[2.2.1] hept-5-ene-2-carboxamide]", "values": [
      {"measurement": "IC50", "setting": "TAK1", "result": 11, "unit": "nM"},
      {"measurement": "IC50", "setting": "IL-23, dendritic cells", "result": "< 100", "unit": "nM"},
      {"measurement": "IC50", "setting": "IRAK4", "result": 6, "unit": "nM"},
      {"measurement": "IC50", "setting": "IL-23, THP1 cells; [1]", "result": "< 100", "unit": "nM"},
      {"measurement": "IC50", "setting": "IL-23, THP1 cells; [2]", "result": 90, "unit": "nM"}
    ]},
    {"smiles": "NC(=O)[C@@H]1[C@H](Nc2nc(Nc3cccc(C(=O)N4CCCC4)c3)ncc2-c2ccccc2F)[C@H]2C=C[C@@H]1C2", "note": "[Compound 10, (1S,2S,3R,4R)-3-((5-(2-fluorophenyl)-2-((3-(pyrrolidine-1-carbonyl)phenyl)amino)pyrimidin-4-yl)amino)bicyclo[2.2.1] hept-5-ene-2-carboxamide]", "values": [
      {"measurement": "IC50", "setting": "TAK1", "result": 4800, "unit": "nM"},
      {"measurement": "IC50", "setting": "IRAK4", "result": 11, "unit": "nM"},
      {"measurement": "IRAK4/TAK1 selectivity", "setting": "IRAK4", "result": 434},
      {"measurement": "Selectivity (TAK1/IRAK4)", "setting": "IRAK4", "result": 434},
      {"measurement": "IC50", "setting": "IL-23, THP1 cells; [1]", "result": "< 1000", "unit": "nM"},
      {"measurement": "IC50", "setting": "IL-23, THP1 cells; [2]", "result": 870, "unit": "nM"}
    ]},
    {"smiles": "N#Cc1cccc(-c2cnc(Nc3cccc(C(=O)N4CCCC4)c3)nc2N[C@@H]2CCCC[C@@H]2C(N)=O)c1", "note": "[Compound 17, (1S,2R)-2-((5-(3-cyanophenyl)-2-((3-(pyrrolidine-1-carbonyl)phenyl)amino)pyrimidin-4-yl)amino)cyclohexane-1-carboxamide]", "values": [
      {"measurement": "IC50", "setting": "TAK1", "result": 67, "unit": "nM"},
      {"measurement": "IC50", "setting": "IRAK4", "result": 30, "unit": "nM"},
      {"measurement": "Selectivity (TAK1/IRAK4)", "setting": "IRAK4", "result": 2},
      {"measurement": "IC50", "setting": "IL-23, THP1 cells; [1]", "result": "< 1000", "unit": "nM"},
      {"measurement": "IC50", "setting": "IL-23, THP1 cells; [2]", "result": 900, "unit": "nM"}
    ]},
    {"smiles": "N#Cc1cccc(-c2cnc(Nc3cccc(C(=O)N4CCCC4)c3)nc2N[C@H]2[C@@H](C#N)[C@@H]3C=C[C@H]2C3)c1", "note": "[Compound 18, (1S,2S,3R,4R)-3-((5-(3-cyanophenyl)-2-((3-(pyrrolidine-1-carbonyl)phenyl)amino)pyrimidin-4-yl)amino)bicyclo[2.2.1] hept-5-ene-2-carbonitrile]", "values": [
      {"measurement": "IC50", "setting": "TAK1", "result": 132000, "unit": "nM"},
      {"measurement": "IC50", "setting": "IRAK4", "result": 3700, "unit": "nM"},
      {"measurement": "Selectivity (TAK1/IRAK4)", "setting": "IRAK4", "result": 36},
      {"measurement": "IC50", "setting": "IL-23, THP1 cells; [1]", "result": "> 1000", "unit": "nM"},
      {"measurement": "IC50", "setting": "IL-23, THP1 cells; [2]", "result": 3400, "unit": "nM"}
    ]}
  ]
}
